Data as given in ChEMBL document CHEMBL3137667, “[Drug-induced liver injury; fourteenth updated edition of the bibliographic database of liver injuries and related drugs]” (Gastroenterol Clin Biol, 2004).

Assays:
[1] = Highest frequency of moderate liver toxicity observed during clinical trials, expressed as a percentage. [column '% BIOL' in source]; details: human
[2] = Highest frequency of acute liver toxicity observed during clinical trials, expressed as a percentage. [column '% AIGUE' in source]; details: human
[3] = Presence of at least one case with successful reintroduction. [column 'REINT' in source]; details: human
[4] = Comments (NB not yet translated). [column 'COMMENTAIRES' in source]; details: human
[5] = Times to onset, minimal and maximal, observed in the indexed observations. [column 'DELAI' in source]; details: human
[6] = Proposed mechanism(s) of liver damage. [column 'MEC' in source]; details: human
[7] = human, serum
[8] = human, serum; remark: listed apart in the source
[9] = human
[10] = human; remark: listed apart in the source
[11] = human; remark: listed apart in the source
[12] = human, serum, 4383 h
[13] = human; remark: listed apart in the source
[14] = human; remark: listed apart in the source
[15] = human; remark: listed apart in the source
[16] = human; remark: listed apart in the source
[17] = human; remark: listed apart in the source
[18] = human; remark: listed apart in the source
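Wherever Hepatotoxicity (association with vascular disease) is given: count of indexed literature references reporting vascular liver injury in humans, e.g. peliosis hepatitis, hepatic veno-occlusive disease or Budd-Chiari syndrome.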
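Wherever Hepatotoxicity (benign tumour) is given: value is a count of indexed literature references citing a benign tumour confirmed by histopathology.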
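Wherever Hepatotoxicity (choleostasis) is given: human cholestatic liver injury, shown by histopathology or by peak ALT or AST elevation over alkaline phosphatase ratio below 2, value counts indexed literature reports.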
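Wherever Hepatotoxicity (chronic liver disease) is given: chronic liver injury confirmed by histopathology or persistently raised serum aminotransferase activity beyond 6 months, value given as the count of indexed literature references.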
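Wherever Hepatotoxicity (cirrhosis) is given: value is a count of indexed literature references reporting cirrhosis confirmed by histopathology.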
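Wherever Hepatotoxicity (cytolytic) is given: human cytolytic liver injury, shown by histopathology or by a ratio above 5 of peak ALT or AST elevation to alkaline phosphatase elevation, value counts indexed references.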
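Wherever Hepatotoxicity (granulomatous hepatitis) is given: value is a count of indexed literature references reporting granulomatous liver disease confirmed by histopathology.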
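Wherever Hepatotoxicity (malignant tumour) is given: malignant tumour confirmed by histopathology, value gives the count of indexed literature references reporting it.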
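Wherever Hepatotoxicity (severe hepatitis) is given: human clinical data: severe hepatitis, meaning potentially life-threatening liver failure or clinically observed cases, the value counts how many indexed literature references report it.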
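Wherever Hepatotoxicity (steatosis) is given: steatosis confirmed by histopathology, value is the count of indexed references.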

Compound	Hepatotoxicity (moderate) ([1]; Liver) [%]	Hepatotoxicity (acute) ([2]; Liver) [%]	Hepatotoxicity (successful reintroduction) [3]	Hepatotoxicity (comment) [4]	Hepatotoxicity (time to onset) [5]	Hepatotoxicity (mechanism) [6]	Hepatotoxicity (moderate) [7]	Hepatotoxicity (acute) [8]	Hepatotoxicity (cytolytic) [9]	Hepatotoxicity (choleostasis) [10]	Hepatotoxicity (chronic liver disease) [12]	Hepatotoxicity (cirrhosis) [13]	Hepatotoxicity (granulomatous hepatitis) [14]	Hepatotoxicity (association with vascular disease) [15]	Hepatotoxicity (steatosis) [16]	Hepatotoxicity (malignant tumour) [17]	Hepatotoxicity (benign tumour) [18]	Hepatotoxicity (moderate) [1] [%]	Hepatotoxicity (acute) [2] [%]	Hepatotoxicity (severe hepatitis) [11]	further results
CCN(CC)CCNC(=O)c1ccc(N)cc1 [PROCAINAMIDE]	0	0	yes	AC_ANTI-M3	3 hours - 3 months	Allergic	1	4	1	4	0	0	4	0	0	0	0	–	–	–	Hepatotoxicity (severe hepatitis) ([11]; Liver): 0
C#C[C@]1(O)CC[C@H]2[C@@H]3CCC4=Cc5oncc5C[C@]4(C)[C@H]3CC[C@@]21C [DANAZOL]	–	–	yes	HNF	3 days - 20 years	Dose-dependant	32	13	6	8	0	0	0	2	0	5	12	42.1	9.4	2	–
O=C(OCC(O)CO)c1ccccc1Nc1ccnc2cc(Cl)ccc12 (stereo unspecified) [GLAFENINE]	0	0	yes	LITHIASE	2 days - 8 months	–	2	14	–	–	5	5	–	0	0	0	0	–	–	–	Hepatotoxicity (mechanism) ([6]; Liver): Allergic; Hepatotoxicity (cytolytic) ([9]; Liver): 12; Hepatotoxicity (choleostasis) ([10]; Liver): 2; Hepatotoxicity (severe hepatitis) ([11]; Liver): 7; Hepatotoxicity (granulomatous hepatitis) ([14]; Liver): 0
COc1ccc(Cl)cc1C(=O)NCCc1ccc(S(=O)(=O)NC(=O)NC2CCCCC2)cc1 [GLYBURIDE]	–	–	yes	CHOLANGITE DUCTOPENIE	2 weeks - 7 years	Allergic, Dose-dependant	7	14	2	10	0	1	2	0	0	0	0	6.7	0	0	–
NC1=NC(=O)C(c2ccccc2)O1 (stereo unspecified) [PEMOLINE]	–	–	yes	AC_ANTI-MF/-N AGGRAVATION_HEPATITE_AUTOIMMUNE	3 days - 3 years	Allergic, Dose-dependant	4	16	14	0	0	0	0	0	1	0	0	2	0.3	10	–
Oc1ncnc2[nH]ncc12 [ALLOPURINOL]	–	–	yes	CHOLANGITE RC/METHYLDOPA REACTIVATION_HSV6	6 days - 5 years	Allergic	14	47	26	12	0	0	13	0	4	0	0	3.1	0.1	12	–
NC(=O)N1c2ccccc2C=Cc2ccccc21 [CARBAMAZEPINE]	23.8	0.2	yes	AC_ANTI-M/-N/-ML CHOLANGITE DUCTOPENIE #CBP REACTIVATION_HSV6	1 day - 8 years	Allergic, Reactive metabolite	40	73	38	41	4	1	12	0	2	1	0	–	–	–	Hepatotoxicity (severe hepatitis) ([11]; Liver): 10
CCC(c1ccccc1)c1c(O)c2ccccc2oc1=O (stereo unspecified) [PHENPROCOUMON]	–	–	yes	RC/ACENOCOUMAROL/WARFARINE CHOLANGITE AC_ANTI-ML/-N	6 days - 7 years	Allergic	2	18	14	7	1	1	1	0	0	0	0	37	0	4	–
CN1C(=O)CN=C(c2ccccc2)c2cc(Cl)ccc21 [DIAZEPAM]	–	–	yes	AC_ANTI-N/-M #CBP	2 days - 9 years	Allergic	1	12	3	9	0	0	1	0	0	0	0	7.1	0	1	–
INTERFERON ALFA-2B	–	–	yes	AGGRAVATION_CBP/HEPATITE_AUTOIMMUNE/HVB/HVC_CHRONIQUE CHOLANGITE	1 week - 1 year	Dose-dependant	52	13	8	2	0	0	3	0	0	0	0	87.5	0	7	–
O=C(O)CCCc1ccc(N(CCCl)CCCl)cc1 [CHLORAMBUCIL]	–	–	yes	PERICHOLANGITE REACTIVATION_HVB	2 weeks - 25 months	Allergic	1	7	4	3	1	1	0	0	0	1	0	5.3	4.8	1	–
Nc1ccc(S(=O)(=O)c2ccc(N)cc2)cc1 [DAPSONE]	20	5	yes	DUCTOPENIE	1 week - 1.5 years	–	10	33	–	–	0	0	–	0	0	0	0	–	–	–	Hepatotoxicity (mechanism) ([6]; Liver): Allergic, Dose-dependant; Hepatotoxicity (cytolytic) ([9]; Liver): 15; Hepatotoxicity (choleostasis) ([10]; Liver): 13; Hepatotoxicity (severe hepatitis) ([11]; Liver): 6; Hepatotoxicity (granulomatous hepatitis) ([14]; Liver): 3
